Results taken from BindingDB's records for doi:10.1021/jm990281p (Parke-Davis Pharmaceutical Research, 2000).

Columns and labels:
[1] = target: T1, Gag-Pol polyprotein [489-587] (Human immunodeficiency virus 1, UniProt P04585); test: Protease Inhibition Assay
T1 construct: 489-587
Protocol: (§1) Sensitivity of HIV-1 protease activity to protease inhibitors was determined by a peptide substrate cleavage assay. Protease products were analyzed on a reverse-phase high-pressure liquid chromatograph.

[2] = target: T2, Dimer of Gag-Pol polyprotein [489-587] (Human immunodeficiency virus 1, UniProt P12497); test: Protease Inhibition Assay
T2 construct: 489-587
Protocol: as §1

Compound | IC50 [1] [nM] | IC50 ([2]; pH 6.2, 37 °C) [nM] | IC50 [2] [nM]
Cc1cc(SC2C(=O)CC(CCc3ccc(O)cc3)(C(C)C)OC2=O)c(C(C)(C)C)cc1NS(C)(=O)=O (centres undefined) | 4 | 4 | –
Cc1cc(SC2C(=O)CC(CCc3ccc(O)cc3)(C(C)C)OC2=O)c(C(C)(C)C)cc1NS(=O)(=O)c1ccc(Cl)cc1 (centres undefined) | 5.3 | 5.3 | –
Cc1cc(SC2C(=O)CC(CCc3ccc(O)cc3)(C(C)C)OC2=O)c(C(C)(C)C)cc1NS(=O)(=O)c1cccnc1 (centres undefined) | 2.6 | 2.6 | –
Cc1cc(SC2C(=O)CC(C)(CCc3ccc(O)cc3)OC2=O)c(C(C)(C)C)cc1NS(C)(=O)=O (centres undefined) | 9.7 | 9.7 | –
Cc1cc(SC2C(=O)CC(C)(CCc3ccc(O)cc3)OC2=O)c(C(C)(C)C)cc1NS(=O)(=O)c1ccc(C#N)cc1 (centres undefined) | 2.1 | 2.1 | –
Cc1cc(SC2C(=O)CC(CCc3ccccc3)(C(C)C)OC2=O)c(C(C)(C)C)cc1N (centres undefined) | 3.6 | 3.6 | –
Cc1cc(SC2C(=O)CC(CCc3ccccc3)(C(C)C)OC2=O)c(C(C)(C)C)cc1NS(=O)(=O)c1cccs1 (centres undefined) | 3.6 | 3.6 | –
Cc1cc(SC2C(=O)CC(CCc3ccccc3)(C(C)C)OC2=O)c(C(C)(C)C)cc1NS(=O)(=O)c1cccnc1 (centres undefined) | 3.5 | – | 3.5
Cc1cc(SC2C(=O)CC(CCc3ccc(O)cc3)(C(C)C)OC2=O)c(C(C)(C)C)cc1OS(=O)(=O)c1ccc(F)cc1 (centres undefined) | 9.6 | – | 9.6
Cc1cc(SC2C(=O)CC(CCc3ccc(O)cc3)(C(C)C)OC2=O)c(C(C)(C)C)cc1OS(=O)(=O)c1cccnc1 (centres undefined) | 3.5 | – | 3.5
Cc1cc(SC2C(=O)CC(C)(CCc3ccc(O)cc3)OC2=O)c(C(C)(C)C)cc1OS(=O)(=O)c1ccccc1 (centres undefined) | 9.8 | – | 9.8
Cc1cc(SC2C(=O)CC(C)(CCc3ccc(O)cc3)OC2=O)c(C(C)(C)C)cc1OS(=O)(=O)c1ccc(F)cc1 (centres undefined) | 16.9 | – | 16.9
Cc1cc(SC2C(=O)CC(CCc3ccc(O)cc3)(C3CCCCC3)OC2=O)c(C(C)(C)C)cc1OS(=O)(=O)c1ccc(C#N)cc1 (centres undefined) | 21 | – | 21
Cc1cc(SC2C(=O)CC(CCc3ccc(O)cc3)(C3CCCCC3)OC2=O)c(C(C)(C)C)cc1OS(=O)(=O)c1ccc(F)cc1 (centres undefined) | 29 | – | 29
Cc1cc(SC2C(=O)CC(CCc3ccccc3)(C(C)C)OC2=O)c(C(C)(C)C)cc1OS(=O)(=O)c1cccnc1 (centres undefined) | 14 | – | 14
Cc1cc(SC2C(=O)CC(CCc3ccc(N)cc3)(C(C)C)OC2=O)c(C(C)(C)C)cc1OS(=O)(=O)c1ccc(C#N)cc1 (centres undefined) | 1.3 | – | 1.3
CCNS(=O)(=O)Nc1cc(C(C)(C)C)c(SC2C(=O)CC(CCc3ccc(O)cc3)(C(C)C)OC2=O)cc1C (centres undefined) | 1.7 | – | 1.7
CCNS(=O)(=O)Nc1cc(C(C)(C)C)c(SC2C(=O)CC(CCc3ccccc3)(C(C)C)OC2=O)cc1C (centres undefined) | 3.3 | – | 3.3
CCNS(=O)(=O)Oc1cc(C(C)(C)C)c(SC2C(=O)CC(CCc3ccccc3)(C(C)C)OC2=O)cc1C (centres undefined) | 8.9 | – | –
Cc1cc(SC2C(=O)CC(CCc3ccccc3)(C(C)C)OC2=O)c(C(C)(C)C)cc1OS(=O)(=O)Cn1ccnc1 (centres undefined) | 3 | – | –
Cc1cc(SC2C(=O)CC(C)(CCc3ccc(O)cc3)OC2=O)c(C(C)(C)C)cc1NS(=O)(=O)Cn1ccnc1 (centres undefined) | 1.9 | – | –
Cc1cc(SC2C(=O)CC(CCc3ccc(N)cc3)(C(C)C)OC2=O)c(C(C)(C)C)cc1OS(=O)(=O)c1cccs1 (centres undefined) | 18.5 | – | –

Compound | IC50 [1] [nM] | IC50 ([2]; pH 6.2, 37 °C) [nM] | IC50 [2] [nM]
CCCC1(CCc2ccc(O)cc2)CC(=O)C(Sc2cc(C)c(OS(=O)(=O)Cn3ccnc3)cc2C(C)(C)C)C(=O)O1 (centres undefined) | 2.2 | – | –
Cc1cc(SC2C(=O)CC(CCc3ccc(O)cc3)(CC(C)C)OC2=O)c(C(C)(C)C)cc1OS(=O)(=O)Cn1ccnc1 (centres undefined) | 3.6 | – | –
Cc1cc(SC2C(=O)CC(CCc3ccccc3)(C(C)C)OC2=O)c(C(C)(C)C)cc1NS(=O)(=O)Cn1ccnc1 (centres undefined) | 1.9 | – | –
Cc1cc(SC2C(=O)CC(C)(CCc3ccc(O)cc3)OC2=O)c(C(C)(C)C)cc1NS(=O)(=O)c1ccc(-c2cccs2)cc1 (centres undefined) | 6.3 | – | –
Cc1cc(SC2C(=O)CC(CCc3ccc(N)cc3)(C(C)C)OC2=O)c(C(C)(C)C)cc1OS(=O)(=O)Cn1ccnc1 (centres undefined) | 2.2 | – | –
Cc1cc(SC2C(=O)CC(CCc3ccc(N)cc3)(C(C)C)OC2=O)c(C(C)(C)C)cc1OS(=O)(=O)c1cccnc1 (centres undefined) | 4.1 | – | –
Cc1cc(SC2C(=O)CC(CCc3ccc(O)cc3)(C(C)C)OC2=O)c(C(C)(C)C)cc1NS(=O)(=O)N(C)C (centres undefined) [3-({2-tert-butyl-4-[(dimethylsulfamoyl)amino]-5-methylphenyl}sulfanyl)-4-hydroxy-6-[2-(4-hydroxyphenyl)ethyl]-6-(propan-2-yl)-5,6-dihydro-2H-pyran-2-one] | 3.6 | – | 3.6
Cc1cc(SC2C(=O)CC(C)(CCc3ccc(O)cc3)OC2=O)c(C(C)(C)C)cc1N (centres undefined) [3-[(4-amino-2-tert-butyl-5-methylphenyl)sulfanyl]-4-hydroxy-6-[2-(4-hydroxyphenyl)ethyl]-6-methyl-5,6-dihydro-2H-pyran-2-one] | 13 | 13 | –
Cc1cc(SC2C(=O)CC(CCc3ccc(N)cc3)(C(C)C)OC2=O)c(C(C)(C)C)cc1OS(=O)(=O)N(C)C (centres undefined) [4-({6-[2-(4-aminophenyl)ethyl]-4-hydroxy-2-oxo-6-(propan-2-yl)-5,6-dihydro-2H-pyran-3-yl}sulfanyl)-5-tert-butyl-2-methylphenyl N,N-dimethylsulfamate] | 3.9 | – | –
CCNS(=O)(=O)Oc1cc(C(C)(C)C)c(SC2C(=O)CC(CCc3ccc(N)cc3)(C(C)C)OC2=O)cc1C (centres undefined) [4-({6-[2-(4-aminophenyl)ethyl]-4-hydroxy-2-oxo-6-(propan-2-yl)-5,6-dihydro-2H-pyran-3-yl}sulfanyl)-5-tert-butyl-2-methylphenyl N-ethylsulfamate] | 4.3 | – | –
Cc1cc(SC2C(=O)CC(CCc3ccc(O)cc3)(C(C)C)OC2=O)c(C(C)(C)C)cc1OS(=O)(=O)c1ccc(C#N)cc1 (centres undefined) [5-tert-butyl-4-({4-hydroxy-6-[2-(4-hydroxyphenyl)ethyl]-2-oxo-6-(propan-2-yl)-5,6-dihydro-2H-pyran-3-yl}sulfanyl)-2-methylphenyl 4-cyanobenzene-1-sulfonate] | 4.5 | – | 4.5
Cc1cc(SC2C(=O)CC(CCc3ccc(O)cc3)(C(C)C)OC2=O)c(C(C)(C)C)cc1OS(=O)(=O)c1ccccc1 (centres undefined) [5-tert-butyl-4-({4-hydroxy-6-[2-(4-hydroxyphenyl)ethyl]-2-oxo-6-(propan-2-yl)-5,6-dihydro-2H-pyran-3-yl}sulfanyl)-2-methylphenyl benzenesulfonate] | 10.4 | – | 10.4
Cc1cc(SC2C(=O)CC(CCc3ccc(O)cc3)(C(C)C)OC2=O)c(C(C)(C)C)cc1OS(=O)(=O)c1ccccn1 (centres undefined) [5-tert-butyl-4-({4-hydroxy-6-[2-(4-hydroxyphenyl)ethyl]-2-oxo-6-(propan-2-yl)-5,6-dihydro-2H-pyran-3-yl}sulfanyl)-2-methylphenyl pyridine-2-sulfonate] | 5 | – | 5
Cc1cc(SC2C(=O)CC(CCc3ccc(O)cc3)(C(C)C)OC2=O)c(C(C)(C)C)cc1OS(=O)(=O)c1cccs1 (centres undefined) [5-tert-butyl-4-({4-hydroxy-6-[2-(4-hydroxyphenyl)ethyl]-2-oxo-6-(propan-2-yl)-5,6-dihydro-2H-pyran-3-yl}sulfanyl)-2-methylphenyl thiophene-2-sulfonate] | 21.8 | – | 21.8
Cc1cc(SC2C(=O)CC(CCc3ccc(O)cc3)(C3CCCCC3)OC2=O)c(C(C)(C)C)cc1OS(=O)(=O)c1ccccc1 (centres undefined) [5-tert-butyl-4-({6-cyclohexyl-4-hydroxy-6-[2-(4-hydroxyphenyl)ethyl]-2-oxo-5,6-dihydro-2H-pyran-3-yl}sulfanyl)-2-methylphenyl benzenesulfonate] | 131 | – | 130
Cc1cc(SC2C(=O)CC(CCc3ccccc3)(C(C)C)OC2=O)c(C(C)(C)C)cc1OS(=O)(=O)c1ccccn1 (centres undefined) [5-tert-butyl-4-{[4-hydroxy-2-oxo-6-(2-phenylethyl)-6-(propan-2-yl)-5,6-dihydro-2H-pyran-3-yl]sulfanyl}-2-methylphenyl pyridine-2-sulfonate] | 6.7 | – | 6.7
CCNS(=O)(=O)Oc1cc(C(C)(C)C)c(SC2C(=O)CC(CCc3ccc(O)cc3)(C(C)C)OC2=O)cc1C (centres undefined) [6-Alkyl-5,6-Dihydropyran-2-one 20] | 4.9 | – | –
Cc1cc(SC2C(=O)CC(CCc3ccc(O)cc3)(C(C)C)OC2=O)c(C(C)(C)C)cc1OS(=O)(=O)N(C)C (centres undefined) [6-Alkyl-5,6-Dihydropyran-2-one 22] | 3.4 | – | –
Cc1cc(SC2C(=O)CC(CCc3ccccc3)(C(C)C)OC2=O)c(C(C)(C)C)cc1NS(=O)(=O)c1ccccn1 (centres undefined) [N-(5-tert-butyl-4-{[4-hydroxy-2-oxo-6-(2-phenylethyl)-6-(propan-2-yl)-5,6-dihydro-2H-pyran-3-yl]sulfanyl}-2-methylphenyl)pyridine-2-sulfonamide] | 3 | – | 3
Cc1cc(SC2C(=O)CC(CCc3ccc(O)cc3)(C(C)C)OC2=O)c(C(C)(C)C)cc1NS(=O)(=O)c1ccc(C(F)(F)F)cc1 (centres undefined) [N-[5-tert-butyl-4-({4-hydroxy-6-[2-(4-hydroxyphenyl)ethyl]-2-oxo-6-(propan-2-yl)-5,6-dihydro-2H-pyran-3-yl}sulfanyl)-2-methylphenyl]-4-(trifluoromethyl)benzene-1-sulfonamide] | 18.3 | 18.3 | –
Cc1cc(SC2C(=O)CC(CCc3ccc(O)cc3)(C(C)C)OC2=O)c(C(C)(C)C)cc1NS(=O)(=O)c1ccc(F)cc1 (centres undefined) [N-[5-tert-butyl-4-({4-hydroxy-6-[2-(4-hydroxyphenyl)ethyl]-2-oxo-6-(propan-2-yl)-5,6-dihydro-2H-pyran-3-yl}sulfanyl)-2-methylphenyl]-4-fluorobenzene-1-sulfonamide] | 4.1 | 4.1 | –
Cc1cc(SC2C(=O)CC(CCc3ccc(O)cc3)(C(C)C)OC2=O)c(C(C)(C)C)cc1NS(=O)(=O)c1ccccn1 (centres undefined) [N-[5-tert-butyl-4-({4-hydroxy-6-[2-(4-hydroxyphenyl)ethyl]-2-oxo-6-(propan-2-yl)-5,6-dihydro-2H-pyran-3-yl}sulfanyl)-2-methylphenyl]pyridine-2-sulfonamide] | 2.6 | 2.6 | –
